In brackets after ≈: the same amount, converted by molar mass.
What was measured:
Format in all cases: physicochemical
[1] = Evaluation of fluorescence quantum yield; conditions: PBS solution (pH 7.4)
Method: A PBS solution (pH 7.4) of the above compound was evaluated according to the method described in the following reference document.
“A Guide to Recording Fluorescence Quantum Yields” (a HORIBA Scientific document, available from https://www.horiba.com/fileadmin/uploads/Scientific/Documents/Fluorescence/quantumyields trad.pdf)
Regarding the fluorescence quantum yield, a high evaluation rank is highly preferable since the fluorescence quantum yield is excellent, and in the present test, it is preferable that the fluorescence quantum yield satisfies the evaluation rank “C” or higher from the viewpoint of practicality as the fluorescent compound.
—Evaluation Standards for Fluorescence Quantum Yield— • A: 0.5 or more • B: 0.3 or more and less than 0.5 • C: 0.1 or more and less than 0.3 • D: less than 0.1 • E: not evaluable due to low water solubility

[2] = Evaluation of water solubility; conditions: PBS pH 7.4, 1% DMSO, 200 μM if completely dissolved, filtrate concentration by UHPLC; for solubility at 30 min: PBS pH 7.4 with 1% DMSO, aqueous buffer, kinetic from dmso stock
Method: 5 μL of a DMSO solution having a concentration of 20 mM of the above compound (hereinafter, referred to as a sample) and 495 μL of PBS having a pH of 7.4 were added and mixed in a 1.5 mL Eppendorf tube and stirred with a multi-shaker MS300 (product name, AS ONE Corporation) at 2,000 rpm for 30 minutes. The obtained mixed solution was allowed to be left for 60 minutes with light shielding and then subjected to centrifugal precipitation (12,000 rpm, 5 minutes). For the filtrate filtered using a filter having a pore diameter of […], the sample concentration was measured with Nexera UHPLC [product name, manufactured by Shimadzu Corporation, column: Shim-pack XR-ODSII] (the sample concentration is 200 μM in a case where the sample is completely dissolved) and evaluated based on the following evaluation standards.
Regarding the water solubility, a high evaluation rank is highly preferable since the hydrophilicity is high, and in the present test, it is preferable that the water solubility satisfies the evaluation rank “C” or higher from the viewpoint of practicality as the fluorescent compound.
—Evaluation Standards for Water Solubility— • A: 100 μM or more • B: 10 μM or more and less than 100 μM • C: 1 μM or more and less than 10 μM • D: Less than 1 μM, or water solubility is low and thus concentration cannot be measured.

[3] = Evaluation of light resistance; conditions: PBS pH 7.4, xenon lamp 22 mW/cm^2, exposure time until absorbance at absorption peak decreases by 20%
Method: The compound synthesized above was dissolved in a PBS solution (pH 7.4) so that the absorbance at the absorption peak wavelength was 0.095 to 0.105. In a state where this solution was exposed using a merry-go-round type light irradiator (xenon lamp UXL-500D-O manufactured by Ushio Inc., HA-50 filter, Y44 filter, exposure intensity: 22 mW/cm^2 (in terms of 500 nm)), the absorbance at the absorption peak wavelength of each compound was measured over time with a spectrometer (Agilent 8453, manufactured by Agilent Technologies, Inc.). The absorbance at the absorption peak wavelength before light exposure was set to 100% and the light exposure time until the absorbance at this absorption peak wavelength decreases by 20% (the absorbance at the absorption peak wavelength reaches 80%) was measured. The results were evaluated based on the following evaluation standards.
A high evaluation rank is highly preferable since stability is kept for a long time, and in the present test, it is preferable that the light resistance satisfies the evaluation rank “B” or higher from the viewpoint of practicality as the fluorescent compound.
—Evaluation Standards for Light Resistance— • A: 100 hours or more • B: 50 hours or more and less than 100 hours • C: 25 hours or more and less than 50 hours • D: 2 hours or more and less than 25 hours • E: Less than 2 hours • F: Not evaluable due to low water solubility

[4] = Evaluation of maximum molar absorption coefficient; conditions: PBS solution (pH 7.4)
Method: A PBS solution (pH 7.4) of the above compound was evaluated according to the method described in the following reference document. The unit of the maximum molar absorption coefficient in the following evaluation standard is mol^−1 Lcm^−1.
“TECH TIP #6 Extinction Coefficients” (a document from Thermo Scientific, Inc., available from https://assets.thermofisher.com/TFS-Assets/LSG/Application-Notes/TR0006-Extinction-coeffi cients.pdf)
Regarding the maximum molar absorption coefficient, a high evaluation rank is highly preferable since the maximum molar absorption coefficient is excellent, and in the present test, it is preferable that the maximum molar absorption coefficient satisfies the evaluation rank “C” or higher from the viewpoint of practicality as the fluorescent compound.
—Evaluation Standard for Maximum Molar Absorption Coefficient— • A: 100,000 or more • B: 50,000 or more and less than 100,000 • C: 10,000 or more and less than 50,000 • D: less than 10,000 • E: not evaluable due to low water solubility

Molecule	Fluorescence quantum yield [1]	solubility at 30 min [2] [µM]	Light resistance [3]	Maximum molar absorption coefficient [4]	Fluorescence quantum yield (comparison in words) [1]	Water solubility [2]
C=C[Si]1(C)C2=CC(=[N+](C)C)C=CC2=C(c2ccc(C(=O)[O-])cc2F)c2ccc(N(C)C)cc21 (stereo not shown) [Compound (2)]	B (0.3 or more and less than 0.5)	1 to 10 (≈ 0.459 to 4.59 µg/mL)	A (100 hours or more)	A (100,000 or more)	–	–
C=C[Si]1(C)C2=CC(=[N+](C)C)C=CC2=C(c2c(OC)cc(C(=O)[O-])cc2OC)c2ccc(N(C)C)cc21 (stereo not shown) [Compound (4)]	B (0.3 or more and less than 0.5)	1 to 10 (≈ 0.501 to 5.01 µg/mL)	A (100 hours or more)	A (100,000 or more)	–	–
C=C[Si]1(C)C2=CC(=[N+](C)C)C=CC2=C(c2sc(C(=O)[O-])cc2C)c2ccc(N(C)C)cc21 (stereo not shown) [Compound (5)]	D (less than 0.1)	1 to 10 (≈ 0.461 to 4.61 µg/mL)	A (100 hours or more)	A (100,000 or more)	–	–
C=C[Si]1(C)C2=CC(=[N+]3CCS(=O)(=O)CC3)C=CC2=C(c2c(F)cc(C(=O)[O-])cc2F)c2ccc(N3CCS(=O)(=O)CC3)cc21 (stereo not shown) [Compound (6)]	B (0.3 or more and less than 0.5)	1 to 10 (≈ 0.657 to 6.57 µg/mL)	A (100 hours or more)	A (100,000 or more)	exhibits a better fluorescence quantum yield as compared with the compound (1)	–
C=C[Si]1(C)C2=C/C(=N/C)C=CC2=C(c2c(F)cc(C(=O)O)cc2F)c2ccc(NC)cc21 (stereo not shown) [Compound (7)]	B (0.3 or more and less than 0.5)	1 to 10 (≈ 0.449 to 4.49 µg/mL)	A (100 hours or more)	A (100,000 or more)	–	–
C=C[Si]1(C)C2=C/C(=N/C)C=CC2=C(c2sc(C(=O)O)cc2C)c2ccc(NC)cc21 (stereo not shown) [Compound (8)]	C (0.1 or more and less than 0.3)	1 to 10 (≈ 0.433 to 4.33 µg/mL)	A (100 hours or more)	B (50,000 or more and less than 100,000)	–	–
C=C[Si]1(C)C2=C/C(=N/C)C=CC2=C(c2c(F)cc(C(=O)NCCOCCOCCOCCOCCC(=O)O)cc2F)c2ccc(NC)cc21 (stereo not shown) [Compound (9)]	B (0.3 or more and less than 0.5)	10 to 100 (≈ 6.96 to 69.6 µg/mL)	A (100 hours or more)	A (100,000 or more)	–	–
C=C[Si]1(C)C2=CC(=[N+]3CC(F)C3)C=CC2=C(c2c(OC)cc(C(=O)[O-])cc2OC)c2ccc(N3CC(F)C3)cc21 (stereo not shown) [Compound (13)]	A (0.5 or more)	1 to 10 (≈ 0.561 to 5.61 µg/mL)	–	B (50,000 or more and less than 100,000)	–	–
C=C[Si]1(C)C2=C/C(=[N+]3\CCC(F)C3)C=CC2=C(c2c(OC)cc(C(=O)[O-])cc2OC)c2ccc(N3CCC(F)C3)cc21 (stereo not shown) [Compound (14)]	A (0.5 or more)	1 to 10 (≈ 0.589 to 5.89 µg/mL)	–	B (50,000 or more and less than 100,000)	–	–
C=C[Si]1(C)C2=C/C(=[N+](\C)CC(F)(F)F)C=CC2=C(c2c(OC)cc(C(=O)[O-])cc2OC)c2ccc(N(C)CC(F)(F)F)cc21 (stereo not shown) [Compound (15)]	A (0.5 or more)	1 to 10 (≈ 0.637 to 6.37 µg/mL)	–	C (10,000 or more and less than 50,000)	exhibits a better fluorescence quantum yield as compared with the compound (4)	–
AlexaFluor647	B (0.3 or more and less than 0.5)	–	D (2 hours or more and less than 25 hours)	A (100,000 or more)	–	A (100 μM or more)
